Experimental data reported in the NIST ThermoML archive (doi:10.1021/je501133u).

Experiment: xn = mol fraction of the nth substance listed
Details: 100 kPa, Liquid; for viscosity: Falling or rolling sphere viscometry; for mass density: Vibrating tube method

CCCCCCCO [heptan-1-ol] + CCO
Details	mass density [kg/m3]	viscosity [mPa·s]
293.15 K, x2 = 0	822.3	7.15
293.15 K, x2 = 0.1	820.6	6.21
293.15 K, x2 = 0.2004	818.7	5.36
293.15 K, x2 = 0.3007	816.9	4.63
293.15 K, x2 = 0.3995	814.7	4.04
293.15 K, x2 = 0.5007	812.1	3.41
293.15 K, x2 = 0.5995	809	2.85
293.15 K, x2 = 0.7001	805.5	2.34
293.15 K, x2 = 0.8002	801.4	1.9
293.15 K, x2 = 0.9003	796.5	1.52
298.15 K, x2 = 0	818.8	6.07
298.15 K, x2 = 0.1	817.1	5.29
298.15 K, x2 = 0.2004	815.1	4.59
298.15 K, x2 = 0.3007	813.3	4
298.15 K, x2 = 0.3995	811.1	3.51
298.15 K, x2 = 0.5007	808.4	2.99
298.15 K, x2 = 0.5995	805.3	2.52
298.15 K, x2 = 0.7001	801.6	2.09
298.15 K, x2 = 0.8002	797.4	1.71
298.15 K, x2 = 0.9003	792.4	1.38
303.15 K, x2 = 0	815.3	5.18
303.15 K, x2 = 0.1	813.6	4.54
303.15 K, x2 = 0.2004	811.6	3.96
303.15 K, x2 = 0.3007	809.7	3.48
303.15 K, x2 = 0.3995	807.4	3.07
303.15 K, x2 = 0.5007	804.7	2.64
303.15 K, x2 = 0.5995	801.5	2.23
303.15 K, x2 = 0.7001	797.8	1.87
303.15 K, x2 = 0.8002	793.5	1.54
303.15 K, x2 = 0.9003	788.3	1.25
308.15 K, x2 = 0	811.8	4.44
308.15 K, x2 = 0.1	810	3.91
308.15 K, x2 = 0.2004	808	3.44
308.15 K, x2 = 0.3007	806	3.03
308.15 K, x2 = 0.3995	803.8	2.7
308.15 K, x2 = 0.5007	800.9	2.33
308.15 K, x2 = 0.5995	797.7	1.99
308.15 K, x2 = 0.7001	793.9	1.67
308.15 K, x2 = 0.8002	789.5	1.39
308.15 K, x2 = 0.9003	784.2	1.13
313.15 K, x2 = 0	808.2	3.83
313.15 K, x2 = 0.1	806.4	3.39
313.15 K, x2 = 0.2004	804.4	3
313.15 K, x2 = 0.3007	802.4	2.66
313.15 K, x2 = 0.3995	800.1	2.38
313.15 K, x2 = 0.5007	797.2	2.07
313.15 K, x2 = 0.5995	793.8	1.78
313.15 K, x2 = 0.7001	790	1.5
313.15 K, x2 = 0.8002	785.4	1.26
313.15 K, x2 = 0.9003	780	1.03
318.15 K, x2 = 0	804.6	3.33
318.15 K, x2 = 0.1	802.8	2.96
318.15 K, x2 = 0.2004	800.7	2.63
318.15 K, x2 = 0.3007	798.7	2.35
318.15 K, x2 = 0.3995	796.3	2.11
318.15 K, x2 = 0.5007	793.4	1.85
318.15 K, x2 = 0.5995	790	1.6
318.15 K, x2 = 0.7001	786	1.36
318.15 K, x2 = 0.8002	781.4	1.14
318.15 K, x2 = 0.9003	775.8	0.94
323.15 K, x2 = 0	801	2.89
323.15 K, x2 = 0.1	799.1	2.59
323.15 K, x2 = 0.2004	797	2.31
323.15 K, x2 = 0.3007	794.9	2.08
323.15 K, x2 = 0.3995	792.5	1.88
323.15 K, x2 = 0.5007	789.5	1.65
323.15 K, x2 = 0.5995	786	1.44
323.15 K, x2 = 0.7001	782	1.23
323.15 K, x2 = 0.8002	777.2	1.04
323.15 K, x2 = 0.9003	771.5	0.87
328.15 K, x2 = 0	797.4	2.54
328.15 K, x2 = 0.1	795.4	2.28
328.15 K, x2 = 0.2004	793.3	2.05
328.15 K, x2 = 0.3007	791.2	1.84
328.15 K, x2 = 0.3995	788.7	1.68
328.15 K, x2 = 0.5007	785.6	1.48
328.15 K, x2 = 0.5995	782.1	1.29
328.15 K, x2 = 0.7001	777.9	1.11
328.15 K, x2 = 0.8002	773	0.94
328.15 K, x2 = 0.9003	767.1	0.79
